From patent publication US9833497B2, “Human originated EGF domain proteins and use of the same” (CHENGDU SOURCEBIO LIMITED-LIABILITY COMPANY, priority 2013, dated 2017)

Tests used:
Type in all cases: cell-based
Klebsiella pneumonia = experiment: MIC against Gram-negative bacteria: Klebsiella pneumonia
Summary of the method: (§1)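 LB broth cultures at McFarland 0.5, spun down, resuspended, diluted to 5×10^5 CFU/mL final. Two-fold serial dilutions of purified human EGF domain proteins, triplicate. 37° C, 175 rpm shaking. Endpoint: no visible growth.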

Aeromonas hydrophila = experiment: MIC against Gram-negative bacteria: Aeromonas hydrophila
Summary of the method: as §1

Proteus vulgaris = experiment: MIC against Gram-negative bacteria: Proteus vulgaris
Summary of the method: as §1

Proteus mirabilis = experiment: MIC against Gram-negative bacteria: Proteus mirabilis
Summary of the method: as §1

Enterobacter cloacae = experiment: MIC against Gram-negative bacteria: Enterobacter cloacae
Summary of the method: as §1

E. coli DH5α = experiment: Antibacterial activity: MIC and growth curve against E. coli DH5α in 96-well plate; details: minimal inhibitory concentration against E. coli DH5α; 96-well plate, 5×10^5 CFU/mL, 37° C., judged after 8 h
Summary of the method: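 Log-phase bacteria (OD600 ~0.5) resuspended in LB at 5×10^5 CFU/mL, exposed to recombinant protein at 50, 25, 12.5 μg/mL final in triplicate, 37 °C shaking at 175 rpm. OD600 read every 30 min; MIC is lowest concentration showing no growth.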

Serratia marcescens = experiment: MIC against Gram-negative bacteria: Serratia marcescens
Summary of the method: as §1

Citrobacter diversus = experiment: MIC against Gram-negative bacteria: Citrobacter diversus
Summary of the method: as §1

Moraxella catarrhalis = experiment: MIC against Gram-negative bacteria: Moraxella catarrhalis
Summary of the method: as §1

E. coli BL21 = experiment: MIC against Gram-negative bacteria: E. coli BL21
Summary of the method: as §1

Pseudomonas aeruginosa = experiment: MIC against Gram-negative bacteria: Pseudomonas aeruginosa
Summary of the method: as §1

[1] = 10 h cultivation at 37° C., 5×10^5 CFU/mL, two-fold serial dilution
[2] = 96-well plate, 5×10^5 CFU/mL, 37° C., 10 h

With “PRT908 (LDNACLTNPCRNGGTCDLLTLTEYKCRCPPGWSGKSCQ; listed as Homo sapiens)” the MIC (Klebsiella pneumonia; K. pneumonia, 10 h cultivation at 37° C.) was 50 µg/mL, the MIC (Aeromonas hydrophila; A. hydrophila, 10 h cultivation at 37° C.) was 25 µg/mL and the MIC (Proteus vulgaris; P. vulgaris, 10 h cultivation at 37° C.) was 25 µg/mL. It also gave an MIC (Proteus mirabilis; P. mirabilis, 10 h cultivation at 37° C.) of 25 µg/mL, an MIC (Enterobacter cloacae; E. cloacae, 10 h cultivation at 37° C.) of 100 µg/mL and an MIC (E. coli DH5α) of 50 µg/mL. It also gave an MIC (Serratia marcescens; S. marcescens, 10 h cultivation at 37° C.) of 25 µg/mL, an MIC (Citrobacter diversus; C. diversus, 10 h cultivation at 37° C.) of 50 µg/mL and an MIC (Moraxella catarrhalis; M. catarrhalis, 10 h cultivation at 37° C.) of 12.5 µg/mL. It also gave an MIC (E. coli BL21; E. coli BL21, 10 h cultivation at 37° C.) of 12.5 µg/mL and an MIC (Pseudomonas aeruginosa; P. aeruginosa, 10 h cultivation at 37° C.) of 25 µg/mL.
For “PRT1167 (NINDCESNPCRNGGTCIDGVNSYKCICSDGWEGAYCE; listed as Homo sapiens)”, the “MIC K. pneumonia” value (Klebsiella pneumonia; [1]) was 25 µg/mL, the “MIC A. hydrophila” value (Aeromonas hydrophila; [1]) was 25 µg/mL and the “MIC P. vulgaris” value (Proteus vulgaris; [1]) was 25 µg/mL. For the same substance, the “MIC P. mirabilis” value (Proteus mirabilis; [1]) was 50 µg/mL, the “MIC E. cloacae” value (Enterobacter cloacae; [1]) was 50 µg/mL and the MIC (E. coli DH5α) was 50 µg/mL. The “MIC S. marcescens” value (Serratia marcescens; [1]) was 12.5 µg/mL, the “MIC C. diversus” value (Citrobacter diversus; [1]) was 12.5 µg/mL and the “MIC M. catarrhalis” value (Moraxella catarrhalis; [1]) was 25 µg/mL. For the same substance, the “MIC E. coli BL21” value (E. coli BL21; [1]) was 25 µg/mL and the “MIC P. aeruginosa” value (Pseudomonas aeruginosa; [1]) was 12.5 µg/mL.
In the case of “PRT246 (DINECTMDSHTCSHHANCFNTQGSFKCKCKQGYKGNGLRCS; listed as Homo sapiens)”, the “MIC (μg/mL) K. pneumonia” value (Klebsiella pneumonia; K. pneumonia, 10 h cultivation at 37° C., 5×10^5 CFU/mL) is reported as 12.5 µg/mL, the “MIC (μg/mL) A. hydrophila” value (Aeromonas hydrophila; A. hydrophila, 10 h cultivation at 37° C., 5×10^5 CFU/mL) is reported as 12.5 µg/mL and the “MIC (μg/mL) P. vulgaris” value (Proteus vulgaris; P. vulgaris, 10 h cultivation at 37° C., 5×10^5 CFU/mL) is reported as 25 µg/mL. The “MIC (μg/mL) P. mirabilis” value (Proteus mirabilis; P. mirabilis, 10 h cultivation at 37° C., 5×10^5 CFU/mL) was 12.5 µg/mL, the “MIC (μg/mL) E. cloacae” value (Enterobacter cloacae; E. cloacae, 10 h cultivation at 37° C., 5×10^5 CFU/mL) was 12.5 µg/mL and the MIC (E. coli DH5α) was 12.5 µg/mL. For the same substance, the “MIC (μg/mL) S. marcescens” value (Serratia marcescens; S. marcescens, 10 h cultivation at 37° C., 5×10^5 CFU/mL) was 12.5 µg/mL, the “MIC (μg/mL) C. diversus” value (Citrobacter diversus; C. diversus, 10 h cultivation at 37° C., 5×10^5 CFU/mL) was 12.5 µg/mL and the “MIC (μg/mL) M. catarrhalis” value (Moraxella catarrhalis; M. catarrhalis, 10 h cultivation at 37° C., 5×10^5 CFU/mL) was 25 µg/mL. The “MIC (μg/mL) E. coli BL21” value (E. coli BL21; E. coli BL21, 10 h cultivation at 37° C., 5×10^5 CFU/mL) was 12.5 µg/mL and the “MIC (μg/mL) P. aeruginosa” value (Pseudomonas aeruginosa; P. aeruginosa, 10 h cultivation at 37° C., 5×10^5 CFU/mL) was 12.5 µg/mL.
In the case of “PRT512 (CACPLISSSNNFSPSCVAEGLDDYRCTACPRGYEGQYCERCAPGYTGSPGNPGGSCQE; listed as Homo sapiens)”, the “MIC against K. pneumonia” value (Klebsiella pneumonia; [2]) is reported as 25 µg/mL, the “MIC against A. hydrophila” value (Aeromonas hydrophila; [2]) is reported as 25 µg/mL and the “MIC against P. vulgaris” value (Proteus vulgaris; [2]) is reported as 25 µg/mL. For the same substance, the “MIC against P. mirabilis” value (Proteus mirabilis; [2]) was 50 µg/mL, the “MIC against E. cloacae” value (Enterobacter cloacae; [2]) was 50 µg/mL and the MIC (E. coli DH5α) was 50 µg/mL. For the same substance, the “MIC against S. marcescens” value (Serratia marcescens; [2]) was 12.5 µg/mL, the “MIC against C. diversus” value (Citrobacter diversus; [2]) was 12.5 µg/mL and the “MIC against M. catarrhalis” value (Moraxella catarrhalis; [2]) was 25 µg/mL. The “MIC against E. coli BL21” value (E. coli BL21; [2]) was 25 µg/mL and the “MIC against P. aeruginosa” value (Pseudomonas aeruginosa; [2]) was 12.5 µg/mL.
“PRT1414 (EVDCMDPTCSGRGVCVRGECHCSVGWGGTNCE; listed as Homo sapiens)” was tested, and the “MIC against K. pneumonia” value (Klebsiella pneumonia; Klebsiella pneumonia, 5×10^5 CFU/mL, 10 h cultivation at 37° C.) was 12.5 µg/mL, the “MIC against A. hydrophila” value (Aeromonas hydrophila; Aeromonas hydrophila, 5×10^5 CFU/mL, 10 h cultivation at 37° C.) was 12.5 µg/mL and the “MIC against P. vulgaris” value (Proteus vulgaris; Proteus vulgaris, 5×10^5 CFU/mL, 10 h cultivation at 37° C.) was 12.5 µg/mL. The “MIC against P. mirabilis” value (Proteus mirabilis; Proteus mirabilis, 5×10^5 CFU/mL, 10 h cultivation at 37° C.) was 12.5 µg/mL, the “MIC against E. cloacae” value (Enterobacter cloacae; Enterobacter cloacae, 5×10^5 CFU/mL, 10 h cultivation at 37° C.) was 50 µg/mL and the MIC (E. coli DH5α) was 50 µg/mL. For the same substance, the “MIC against S. marcescens” value (Serratia marcescens; Serratia marcescens, 5×10^5 CFU/mL, 10 h cultivation at 37° C.) was 25 µg/mL, the “MIC against C. diversus” value (Citrobacter diversus; Citrobacter diversus, 5×10^5 CFU/mL, 10 h cultivation at 37° C.) was 12.5 µg/mL and the “MIC against M. catarrhalis” value (Moraxella catarrhalis; Moraxella catarrhalis, 5×10^5 CFU/mL, 10 h cultivation at 37° C.) was 50 µg/mL. The “MIC against E. coli BL21” value (E. coli BL21; E. coli BL21, 5×10^5 CFU/mL, 10 h cultivation at 37° C.) was 12.5 µg/mL and the “MIC against P. aeruginosa” value (Pseudomonas aeruginosa; Pseudomonas aeruginosa, 5×10^5 CFU/mL, 10 h cultivation at 37° C.) was 50 µg/mL.
